From ChEMBL document CHEMBL6120941, “Discovery of SIRT1-Activating Hydrogen Sulfide Donating Derivatives for Efficient Resistant of Myocardial Ischemic Injury” (J Med Chem, 2024)
Activity calls are given as the source filed them. The calls are words filed in the database; no cut-off is given here.

Legend:
[1] = system: H9c2; experiment: Cardioprotective activity against CoCl2-induced cellular hypoxia injury in rat H9c2 cells assessed as cell viability at 1.25 uM incubated for 24 hrs by CCK-8 assay (reference value: 51.80 +/- 2.58 %); type: functional; settings: read-out: Activity
[2] = system: H9c2; experiment: Cardioprotective activity against CoCl2-induced cellular hypoxia injury in rat H9c2 cells assessed as cell viability at 0.625 uM incubated for 24 hrs by CCK-8 assay (reference value: 51.80 +/- 2.58 %); type: functional; settings: read-out: Activity
[3] = system: H9c2; experiment: Cardioprotective activity against CoCl2-induced cellular hypoxia injury in rat H9c2 cells assessed as cell viability at 10 uM incubated for 24 hrs by CCK-8 assay (reference value: 51.80 +/- 2.58 %); type: functional; settings: read-out: Activity
[4] = system: H9c2; experiment: Cardioprotective activity against CoCl2-induced cellular hypoxia injury in rat H9c2 cells assessed as cell viability at 5 uM incubated for 24 hrs by CCK-8 assay (reference value: 51.80 +/- 2.58 %); type: functional; settings: read-out: Activity
[5] = system: H9c2; experiment: Cardioprotective activity against CoCl2-induced cellular hypoxia injury in rat H9c2 cells assessed as increase in cell viability at 30 uM incubated for 24 hrs by CCK-8 assay; type: functional, cell-based
[6] = system: H9c2; experiment: Cardioprotective activity against CoCl2-induced cellular hypoxia injury in rat H9c2 cells assessed as cell viability at 2.5 uM incubated for 24 hrs by CCK-8 assay (reference value: 51.80 +/- 2.58 %); type: functional; settings: read-out: Activity

Structure (SMILES)	viability at 1.25 µM [1]	viability at 0.625 µM [2]	viability at 10 µM [3]	viability at 5 µM [4]	Activity [5]	viability at 2.5 µM [6]
CC(C)(O)[C@@H]1CC[C@@](C)([C@H]2CC[C@]3(C)[C@@H]2[C@H](O)C[C@@H]2[C@@]4(C)CC[C@H](OC(=O)c5ccc(N=C=S)cc5)C(C)(C)[C@@H]4[C@@H](O)C[C@]23C)O1	55.5%	56.9%	63.1%	61.4%	inactive	58.8%
CC(C)=CCC[C@](C)(O)[C@H]1CC[C@]2(C)[C@@H]1[C@H](O)C[C@@H]1[C@@]3(C)CC[C@H](O)C(C)(C)[C@@H]3[C@@H](O)C[C@]12C	66.8%	66%	71.6%	71.4%	inactive	67.3%
CC(C)(O)[C@@H]1CC[C@@](C)([C@H]2CC[C@]3(C)[C@@H]2[C@H](O)C[C@@H]2[C@@]4(C)CC[C@H](OC(=O)CCC(=O)Oc5ccc(-c6cc(=S)ss6)cc5)C(C)(C)[C@@H]4[C@@H](O)C[C@]23C)O1	73.6%	68.4%	75.2%	77.2%	inactive	76.9%
C=CCSSCCC(=O)O	57.5%	51.7%	80.3%	71%	inactive	68.4%
CC(C)(O)[C@H]1CC[C@@](C)([C@H]2CC[C@]3(C)[C@@H]2[C@H](O)C[C@@H]2[C@@]4(C)CC[C@H](OC(=O)CCC(=O)Oc5ccc(-c6cc(=S)ss6)cc5)C(C)(C)[C@@H]4[C@@H](O)C[C@]23C)O1	66.2%	67.3%	68.3%	68.1%	inactive	68.4%
CC(C)(O)[C@@H]1CC[C@@](C)([C@H]2CC[C@]3(C)[C@@H]2[C@H](O)C[C@@H]2[C@@]4(C)CC[C@H](O)C(C)(C)[C@@H]4[C@@H](O)C[C@]23C)O1 [PROTOPANAXATRIOL OXIDE II]	54%	52%	73.4%	69.6%	inactive	56.7%
C=CCSSCCC(=O)O[C@H]1CC[C@]2(C)[C@H]3C[C@@H](O)[C@@H]4[C@@H]([C@]5(C)CC[C@H](C(C)(C)O)O5)CC[C@@]4(C)[C@]3(C)CC[C@H]2C1(C)C	72.3%	65.7%	74.2%	76.9%	inactive	73.6%
O=C(O)CCC(=O)Oc1ccc(-c2cc(=S)ss2)cc1	67.4%	66.4%	80.3%	77.6%	inactive	74.3%
O=C(O)c1ccc(N=C=S)cc1	53.7%	51.1%	63.5%	59.5%	inactive	59.3%
CC(C)(O)[C@H]1CC[C@@](C)([C@H]2CC[C@]3(C)[C@@H]2[C@H](O)C[C@@H]2[C@@]4(C)CC[C@H](OC(=O)c5ccc(N=C=S)cc5)C(C)(C)[C@@H]4[C@@H](O)C[C@]23C)O1	59.6%	52.5%	58.5%	58.6%	inactive	57.1%
CC(C)(O)[C@H]1CC[C@@](C)([C@H]2CC[C@]3(C)[C@@H]2[C@H](O)C[C@@H]2[C@@]4(C)CC[C@H](OC(=O)CCC(=O)Oc5ccc(-c6cc(=S)ss6)cc5)C(C)(C)[C@@H]4CC[C@]23C)O1	66.8%	65.1%	72.5%	69.5%	inactive	67.5%
CC(C)=CCC[C@](C)(O)[C@H]1CC[C@]2(C)[C@@H]1[C@H](O)C[C@@H]1[C@@]3(C)CC[C@H](OC(=O)c4ccc(N=C=S)cc4)C(C)(C)[C@@H]3[C@@H](O)C[C@]12C	55.2%	50.9%	54.8%	56.6%	inactive	54%
CC(C)(O)[C@H]1CC[C@@](C)([C@H]2CC[C@]3(C)[C@@H]2[C@H](O)C[C@@H]2[C@@]4(C)CC[C@H](O)C(C)(C)[C@@H]4CC[C@]23C)O1	66.4%	68.7%	75.5%	66.9%	inactive	65.4%
CC(C)(O)[C@H]1CC[C@@](C)([C@H]2CC[C@]3(C)[C@@H]2[C@H](O)C[C@@H]2[C@@]4(C)CC[C@H](OC(=O)CCC(=O)Oc5ccc(-c6nc(=O)ss6)cc5)C(C)(C)[C@@H]4[C@@H](O)C[C@]23C)O1	72.5%	65.7%	81.5%	77.3%	inactive	76%
CC(C)(O)[C@H]1CC[C@@](C)([C@H]2CC[C@]3(C)[C@@H]2[C@H](O)C[C@@H]2[C@@]4(C)CC[C@H](O)C(C)(C)[C@@H]4[C@@H](O)C[C@]23C)O1	55.6%	56.5%	61.5%	55.6%	inactive	57%
CC(C)(O)[C@@H]1CC[C@@](C)([C@H]2CC[C@]3(C)[C@@H]2[C@H](O)C[C@@H]2[C@@]4(C)CC[C@H](OC(=O)c5ccc(N=C=S)cc5)C(C)(C)[C@@H]4CC[C@]23C)O1	62.2%	62.2%	77.1%	70%	inactive	67.1%
O=C(O)CCC(=O)Oc1ccc(-c2nc(=O)ss2)cc1	55.1%	52.4%	57.2%	57%	inactive	55.9%
C=CCSSCCC(=O)O[C@H]1CC[C@]2(C)[C@H]3C[C@@H](O)[C@@H]4[C@@H]([C@@](C)(O)CCC=C(C)C)CC[C@@]4(C)[C@]3(C)CC[C@H]2C1(C)C	50.8%	46%	62.7%	60.6%	inactive	42.5%
CC(C)=CCC[C@](C)(O)[C@H]1CC[C@]2(C)[C@@H]1[C@H](O)C[C@@H]1[C@@]3(C)CC[C@H](OC(=O)c4ccc(N=C=S)cc4)C(C)(C)[C@@H]3CC[C@]12C	61%	54.7%	61.5%	67.5%	inactive	60.7%
C=CCSSCCC(=O)O[C@H]1CC[C@]2(C)[C@H]3C[C@@H](O)[C@@H]4[C@@H]([C@]5(C)CC[C@H](C(C)(C)O)O5)CC[C@@]4(C)[C@]3(C)C[C@H](O)[C@H]2C1(C)C	64.5%	68.1%	69.7%	66.5%	inactive	62.9%
O=C(Nc1ccccc1-c1cn2c(CN3CCNCC3)csc2n1)c1cnc2ccccc2n1	73.3%	71.7%	88.4%	83.3%		80.6%
